Measurements from PMC12635268, “Novel antimicrobial peptides and peptide-microbiome crosstalk in Appalachian salamander skin” (NPJ Biofilms and Microbiomes, 2025).

Test system: HepG2 (ATCC HB-8065)
Assay: HepG2 cytotoxicity, MTT assay
Assay type: cell-based, human
Conditions: at concentrations up to 5.25 μg/mL (5.25 to 0.15 µg/mL), 48 h
Procedure: For any inhibitory peptides, HepG2 (ATCC HB-8065) cytotoxicity was tested to determine half-maximal inhibitory concentration (IC50) of human cells. The procedure involved seeding 96-well plates with 2.5 × 10^4 cells per well in 170 µL of culture medium, followed by an overnight incubation at 37 °C in a 5% CO₂ atmosphere. Subsequently, cells were exposed to varying concentrations of the test peptides, ranging from 5.25 µg/mL to 0.15 µg/mL, and incubated for an additional 48 h. Cell viability was assessed using the MTT assay, as previously described. Absorbance measurements were obtained using a PerkinElmer EnSight plate reader. The IC50 values for each compound were calculated by fitting the data to a sigmoidal dose-response curve with variable slope using GraphPad Prism software. Each assay plate included three controls: (a) background control—wells without cells and without drug; (b) positive control—wells with cells and 10 µg/mL of a known toxic compound; and (c) DMSO control—wells with cells and 0.2% DMSO, the highest concentration of DMSO used in the assay, which is non-toxic to the cells.

CC[C@H](C)[C@H](NC(=O)[C@H](CCCCN)NC(=O)[C@H](CCC(=O)O)NC(=O)[C@H](CCCCN)NC(=O)[C@H](CO)NC(=O)[C@H](CCCCN)NC(=O)[C@H](CCCNC(=N)N)NC(=O)[C@H](Cc1ccccc1)NC(=O)[C@H](Cc1ccccc1)NC(=O)[C@H](CC(=O)O)NC(=O)CNC(=O)[C@H](CC(C)C)NC(=O)[C@@H](N)CC(C)C)C(=O)NCC(=O)N[C@@H](CCCCN)C(=O)N[C@@H](CCC(=O)O)C(=O)N[C@@H](Cc1ccccc1)C(=O)N[C@@H](CCCCN)C(=O)N[C@@H](CCCNC(=N)N)C(=O)N[C@H](C(=O)N[C@H](C(=O)N[C@@H](CCC(N)=O)C(=O)N[C@@H](CCCNC(=N)N)C(=O)N[C@H](C(=O)N[C@@H](CCCCN)C(=O)N[C@@H](CC(=O)O)C(=O)N[C@@H](Cc1ccccc1)C(=O)N[C@@H](CC(C)C)C(=O)N[C@@H](CCCNC(=N)N)C(=O)N[C@@H](CC(N)=O)C(=O)N[C@@H](CC(C)C)C(=O)N[C@H](C(=O)N1CCC[C@H]1C(=O)N[C@@H](CCCNC(=N)N)C(=O)N[C@H](C(=O)N[C@@H](CCC(=O)O)C(=O)N[C@@H](CO)C(=O)O)[C@@H](C)O)C(C)C)[C@@H](C)CC)C(C)C)[C@@H](C)CC [LL-37, reference compound]
HepG2 cytotoxicity in words: No HepG2 cytotox was observed
